Results on 15 compounds are retold here after PMC9805685, “Isolation, bioassay and 3D-QSAR analysis of 8-isopentenyl flavonoids from Epimedium sagittatum maxim. as PDE5A inhibitors” (Chinese Medicine, 2022).

Assay [1] addresses T1, PDE5A1 (Homo sapiens, UniProt O76074). The assay is described as follows: PDE5A1 inhibition assay, enzyme reaction with HPLC detection of cGMP. The class given is biochemical. To be noted: 0.15 µg/mL PDE5A1, 7.5 µg/mL cGMP, 90 min at 35 ℃. Here is the method:
50 μL analytes were injected and separated on the C18 5 μm column with a flow rate of 1 mL/min at 30 °C column temperature. The mobile phase consisted of methanol and 0.05 mol/L potassium dihydrogen phosphate (10:90, V/V).
All components for assay were diluted in assay buffer which contained 100 mM MgCl2 and 50 mM Tris–HCl (pH 8.0). The compounds were dissolved in DMSO and then further diluted to the desired concentration with assay buffer. 30 μL PDE5A1 solution and 30 μL compound solution were mixed at room temperature and incubated for 5 min, followed by addition of with 30 μL cGMP solution, and the reaction was carried out at 35 °C for 90 min. After the assay, each vial was incubated in 100 °C boiling water for 5 min to inactivate the PDE5A1 activity, and then was cooled to be detected with HPLC. No PDE5A1 was used as the positive control, and DMSO was used as the negative control. Percentage inhibition was calculated using the peak area of HPLC with the following formula.
For dose–response experiments, the PDE5A1 inhibitors were diluted to 7 concentrations series with fourfold gradient. Two individual operations were performed on different dates as the repetition.
For developing the screening method for PDE5A1 inhibitors, the in vitro enzyme reaction and HPLC detection were combined. […] The concentrations of enzyme and substrate are important parameters in the inhibitor screening assay.

Assay [2] relates to cGMP level of CCSMCs. As to the kind of experiment: cGMP assay in CCSMCs by ELISA. The conditions noted are these: 10 μM, 48 h. The class given is cell-based, rat. The text has this: (§1) Male Sprague–Dawley (SD) rats (180–220 g) were purchased from Shanghai SLAC Laboratory Animal Co., Ltd. This experiment protocol was approved by the standardizing laboratory animal ethical review of Shanghai University of Traditional Chinese Medicine. After removal of the corpus spongiosum, subcutaneous tissue and deep fascia of penises of SD rats, the corpus cavernosum tissue was cut into small pieces of less than 2mm^3 and digested with 0.5% collagenase I and 20% fetal bovine serum (PFES) in DMEM for 4 h. The cell suspensions were collected by mesh filtration and centrifugation, and cultured in DMEM containing 20% PFES and 1 × antibiotics at 37 °C in a humidified atmosphere with 5% CO2. After 24 h culture, spindle CCSMCs attached to the culture dish. The medium was replaced with DMEM containing 10% PFES when CCSMCs reached 70% confluence.
CCSMCs were seeded in 6-well plate at a density of 100,000/well for 24 h, and then were treated with 10 μM 1 ~ 3 for 48 h. The cells were lysed by 0.1 M hydrochloric acid with 200 μl per well for 20 min incubation, then the supernatant was collected and determined the cGMP content by ELISA.
(An ELISA detects its analyte on a solid surface through an enzyme-linked reagent.)

Assay [3] deals with cytoplasmic calcium in CCSMCs. As to the kind of experiment: Fluorescent staining of calcium (Fluo-4AM) in CCSMCs. The class given is cell-based, rat. To be noted: for fluorescence intensity of cytoplasmic calcium in CCSMCs: 10 uM, 30 min, Fluo-4 AM.
Excerpt: as §1
CCSMCs were cultured in 6-well plate at a density of 100,000/well for 48 h. Then cells were stained by Fluo-4AM for 30 min prior to […] 1 ~ 3 exposure for 30 min in the presence or absence of 10 μM Rp-8-Br-cGMPS (the protein kinase G inhibitor). After PBS rinse, the cytosolic calcium was observed by fluorescence microscope.

For assay [4], the target named is T1, PDE5A1. The assay is described as follows: CoMFA 3D-QSAR model prediction of PDE5A1 activity. The conditions noted are these: EA minus PA. Here is the method:
(§2) All molecular modeling and calculations were performed by the Sybyl program package. The structures of all compounds were constructed using the Sketch Molecule module. Structural energy minimization was carried out using the standard Tripos molecular mechanics force field and Gasteiger-Huckle charge, with the convergence criterion set at 0.005 kcal/(Å·mol) and the max iterations for the minimization set to 10,000.
The 3D cubic lattice region was created automatically and the grid spacing was set at 1.7 Å in the x, y, and z directions. A sp^3 carbon atom with + 1 net charge was taken as the probe atom and steric and electrostatic interactions were calculated by using the Tripos force field. A cutoff of 30 kcal/mol was adopted in calculating energies. With standard options for scaling of variables, the regression analysis was carried out using partial least squares (PLS) method. The cross-validation with Leave-One-Out (LOO) option was carried out to obtain the optimum number of components (ONC).The final model (non-cross-validated conventional analysis) was developed with the optimum number of components. Region focusing is an advanced strategy that improves prediction ability of the initial built CoMFA model. CoMFA region focusing method refines a model by increasing the weights of the lattice points. StDev × coefficient values were used as weights.

Assay [5] concerns the target T1, PDE5A1. The assay is described as follows: CoMSIA 3D-QSAR model prediction of PDE5A1 activity. To be noted: EA minus PA. On the procedure: as §2
Although CoMSIA is similar to CoMFA, CoMSIA not only computes the steric and electrostatic fields, but also calculates additional hydrophobic, hydrogen-bond donor, and hydrogen-bond acceptor fields. CoMSIA descriptors were calculated with the same lattice box, grid spacing and probe atom as that used for the CoMFA calculations. In CoMSIA analysis, the five different descriptor fields are not totally independent from each other. Given that the size of dataset, we decided to use three of five fields as the descriptors.

For assay [6], the target named is T1, PDE5A1. The conditions noted are these: converted from literature IC50; cited from earlier work.

Molecules are shown by their SMILES. Several values for one entry are separate records, joined by “and”; a condition that tells them apart may be missing. Identical values can stand only once. Like-named read-outs stand apart in the source and are kept apart here.

As to `COc1ccc(-c2oc3c(CC=C(C)C)c(O[C@@H]4O[C@H](CO)[C@@H](O)[C@H](O)[C@H]4O)cc(O)c3c(=O)c2O[C@@H]2O[C@@H](C)[C@H](O)[C@@H](O)[C@H]2O)cc1` [Compound 1, icariin], the half-maximal inhibitory concentration (IC50) (as a rule, the point on the concentration scale where inhibition reaches its midpoint) in assay [1] (PDE5A1 (IC50 ± SD)) is 8.28 µM and 8.27 µM. Moreover, the “cGMP level of CCSMCs” value in assay [2] is listed as “increase cGMP level”. Also, the “fluorescence intensity of cytoplasmic calcium in CCSMCs” value in assay [3] is recorded as “decrease cytoplasmic Ca^2+”. The CoMFA residual in assay [4] is 0.034.

Consider `COc1ccc(-c2oc3c(CC=C(C)C)c(O)cc(O)c3c(=O)c2OC2OC(C)C(O)C(O)C2OC2OC(C)C(O)C(O)C2O)cc1` (centres unmarked) [Compound 2, 2-O"-rhamnosylicaridide II], for which, in assay [1] (read-out: PDE5A1 (IC50 ± SD)), the concentration for half-maximal inhibition (IC50) is 3.23 µM. For the same compound, the “cGMP level of CCSMCs” value in assay [2] is reported as “increase cGMP level”. Further, the “fluorescence intensity of cytoplasmic calcium in CCSMCs” value in assay [3] is given as “decrease cytoplasmic Ca^2+”. In addition, the CoMFA residual in assay [4] is listed as 0.015.

Consider `COc1ccc(-c2oc3c(CC=C(C)C)c(O)cc(O)c3c(=O)c2O[C@@H]2O[C@@H](C)[C@H](O)[C@@H](O)[C@H]2O)cc1` [Compound 3, baohuoside I], for which the IC50 in assay [1] (read-out: PDE5A1 (IC50 ± SD)) is 5.47 µM and 5.48 µM. Moreover, the “cGMP level of CCSMCs” value in assay [2] is given as “increase cGMP level”. Also, in assay [3], the “fluorescence intensity of cytoplasmic calcium in CCSMCs” value is “decrease cytoplasmic Ca^2+”. The CoMSIA residual in assay [5] was 0.013.

Take `COc1ccc(-c2oc3c(CC=C(C)C)c(OC4OC(CO)C(O)C(O)C4O)cc(O)c3c(=O)c2OC2OC(C)C(O)C(O)C2OC2OC(CO)C(O)C(O)C2O)cc1` (centres unmarked) [Compound 4, epimedin A]: in assay [1] (read-out: PDE5A1 (IC50 ± SD)), the IC50 is 409 ± 31.4 µM.

For `COc1ccc(-c2oc3c(CC=C(C)C)c(OC4OC(CO)C(O)C(O)C4O)cc(O)c3c(=O)c2OC2OC(C)C(O)C(O)C2OC2OCC(O)C(O)C2O)cc1` (centres unmarked) [Compound 5, epimedin B], in assay [1] (read-out: PDE5A1 (IC50 ± SD)), the IC50 was 358 ± 34.2 µM. The CoMFA residual in assay [4] is reported as 0.032.

Take `COc1ccc(-c2oc3c(CC=C(C)C)c(OC4OC(CO)C(O)C(O)C4O)cc(O)c3c(=O)c2OC2OC(C)C(O)C(O)C2OC2OC(C)C(O)C(O)C2O)cc1` (centres unmarked) [Compound 6, epimedin C]: the half-inhibitory concentration (IC50) in assay [1] (read-out: PDE5A1 (IC50 ± SD)) was 682 µM. The CoMSIA residual in assay [5] is given as 0.037.

As to `COc1ccc(-c2oc3c(CC=C(C)C)c(O)cc(O)c3c(=O)c2O)cc1` [Compound 7], in assay [4], the CoMFA residual was 0.105. The CoMSIA residual in assay [5] was 0.058.

As for `COc1ccc(-c2oc3c(CC=C(C)C)c(OCCO)cc(O)c3c(=O)c2OC2OC(C)C(O)C(O)C2O)cc1` (centres unmarked) [Compound 8], in assay [5], the CoMSIA residual is 0.000. For the same compound, the “pIC50 (-logIC50), experimental activity (EA)” value (“pIC50 (-logIC50)” below) in assay [6] is listed as 6.444.

As for `COc1ccc(C(=O)/C=C\c2cc(OC)c(OC)cc2OC)c(OC)c1` [Compound 10], in assay [4], the CoMFA residual is reported as 0.296. Moreover, in assay [5], the CoMSIA residual is given as 0.562. For the same compound, the “pIC50 (-logIC50)” value in assay [6] is 5.745.

With `COc1ccc(/C=C/C(=O)c2c(OCc3ccccc3)cc(OC)c(OC)c2OC)cc1OC` [Compound 12], the “pIC50 (-logIC50)” value in assay [6] is recorded as 5.229.

Consider `COc1ccc(OC)c(C(=O)/C=C/c2ccc(OC)c(OC)c2)c1` [Compound 13], for which, in assay [6], the “pIC50 (-logIC50)” value is recorded as 5.155.

Consider `COc1cccc(/C=C/C(=O)c2c3c(c(OC)c4c2OCO4)CN(C)CC3)c1` [Compound 14], for which, in assay [4], the CoMFA residual was 0.06. In assay [5], the CoMSIA residual was 0.025. For the same compound, the “pIC50 (-logIC50)” value in assay [6] is 5.208.

With `CCCOc1ccccc1-c1nc2n[nH]nc2c(=O)[nH]1` [Compound 17], in assay [5], the CoMSIA residual is given as 0.001.

`Nc1nc2c(nc(Br)n2[C@@H]2O[C@@H]3COP(O)(=S)O[C@H]3[C@H]2O)c(=O)[nH]1` (some centres unmarked) [Rp-8-Br-cGMPS, reference compound]: the “effect on calcium down-regulation by 1 ~ 3 in CCSMCs” value in assay [3] (10 μM Rp-8-Br-cGMPS together with 1 ~ 3, 30 min) is on record as “blocked the down-regulated calcium levels”.

For `CCCc1nn(C)c2c(=O)[nH]c(-c3cc(S(=O)(=O)N4CCN(C)CC4)ccc3OCC)nc12` [Sildenafil, sildenafil], the CoMFA residual in assay [4] is given as 0.068.
